# PubChem BioAssay (NCI)
#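 Cultured in 96-well plates, cells were exposed to test compound for 48 hours across five concentrations. Here, GI50 denotes the concentration required for 50% inhibition of growth. At the TGI there is no net growth.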
# How the values were obtained:
# Test in all cases: NCI anticancer screen, dose series, 48 h
# RPMI-8226 leukemia = test system: RPMI-8226 leukemia
# MDA-MB-435 = test system: MDA-MB-435
# NCI-H23 lung = test system: NCI-H23 lung
# HCT-15 colon = test system: HCT-15 colon
# HOP-62 NSCLC = test system: HOP-62 NSCLC
# RXF 393 renal = test system: RXF 393 renal
# A549 NSCLC = test system: A549 NSCLC
# T-47D breast = test system: T-47D breast
# OVCAR-3 ovarian = test system: OVCAR-3 ovarian
# COLO 205 colon = test system: COLO 205 colon
# U251 CNS = test system: U251 CNS
# SK-OV-3 ovarian = test system: SK-OV-3 ovarian
# K-562 leukemia = test system: K-562 leukemia
# SNB-19 CNS = test system: SNB-19 CNS
# OVCAR-8 ovarian = test system: OVCAR-8 ovarian
# UO-31 renal = test system: UO-31 renal
# TK-10 renal = test system: TK-10 renal
# ACHN renal = test system: ACHN renal
# HS 578T breast = test system: HS 578T breast
# SK-MEL-2 melanoma = test system: SK-MEL-2 melanoma
# SF-295 CNS = test system: SF-295 CNS
# SNB-75 CNS = test system: SNB-75 CNS
# SK-MEL-28 melanoma = test system: SK-MEL-28 melanoma
# HCC-2998 colon = test system: HCC-2998 colon
# PC-3 prostate = test system: PC-3 prostate
# CAKI-1 renal = test system: CAKI-1 renal
# MOLT-4 leukemia = test system: MOLT-4 leukemia
# CCRF-CEM leukemia = test system: CCRF-CEM leukemia
# NCI/ADR-RES ovarian = test system: NCI/ADR-RES ovarian
# SW-620 colon = test system: SW-620 colon
# M14 melanoma = test system: M14 melanoma
# 786-0 renal = test system: 786-0 renal
# SR leukemia = test system: SR leukemia
# MALME-3M melanoma = test system: MALME-3M melanoma
# HOP-92 NSCLC = test system: HOP-92 NSCLC
# KM12 colon = test system: KM12 colon
# EKVX NSCLC = test system: EKVX NSCLC
# SF-268 CNS = test system: SF-268 CNS
# HCT-116 colon = test system: HCT-116 colon
# HT29 colon = test system: HT29 colon
# DU-145 prostate = test system: DU-145 prostate
# NCI-H226 lung = test system: NCI-H226 lung
# A498 renal = test system: A498 renal
# UACC-62 melanoma = test system: UACC-62 melanoma
# IGROV1 ovarian = test system: IGROV1 ovarian
# HL-60(TB) leukemia = test system: HL-60(TB) leukemia
# MCF7 breast = test system: MCF7 breast
# UACC-257 melanoma = test system: UACC-257 melanoma
# LOX IMVI melanoma = test system: LOX IMVI melanoma
# OVCAR-4 ovarian = test system: OVCAR-4 ovarian
# NCI-H460 lung = test system: NCI-H460 lung
# SN12C renal = test system: SN12C renal
# BT-549 breast = test system: BT-549 breast
# MDA-MB-231 breast = test system: MDA-MB-231 breast
# SF-539 CNS = test system: SF-539 CNS
# NCI-H522 lung = test system: NCI-H522 lung
# OVCAR-5 ovarian = test system: OVCAR-5 ovarian
# SK-MEL-5 melanoma = test system: SK-MEL-5 melanoma
structure (smiles),measurement,setting,value
COc1ccc(C2=NN(C(=O)COc3ccc(Cl)cc3)C(O)(c3cc(F)c(Cl)cc3Cl)C2)cc1OC (centres undefined),GI50,RPMI-8226 leukemia,1.79 µM
same,TGI,RPMI-8226 leukemia,5.78 µM
same,GI50,MDA-MB-435,1.62 µM
same,TGI,MDA-MB-435,3.48 µM
same,GI50,NCI-H23 lung,4.74 µM
same,TGI,NCI-H23 lung,17.8 µM
same,GI50,HCT-15 colon,1.39 µM
same,TGI,HCT-15 colon,3 µM
same,GI50,HOP-62 NSCLC,13.9 µM
same,TGI,HOP-62 NSCLC,30.8 µM
same,GI50,RXF 393 renal,0.474 µM
same,TGI,RXF 393 renal,1.48 µM
same,GI50,A549 NSCLC,6.24 µM
same,TGI,A549 NSCLC,18.7 µM
same,GI50,T-47D breast,1.51 µM
same,TGI,T-47D breast,3.29 µM
same,GI50,OVCAR-3 ovarian,0.214 µM
same,TGI,OVCAR-3 ovarian,1.46 µM
same,GI50,COLO 205 colon,1.63 µM
same,TGI,COLO 205 colon,3.41 µM
same,GI50,U251 CNS,5.69 µM
same,TGI,U251 CNS,16.6 µM
same,GI50,SK-OV-3 ovarian,16.1 µM
same,TGI,SK-OV-3 ovarian,30.6 µM
same,GI50,K-562 leukemia,1.55 µM
same,TGI,K-562 leukemia,15.2 µM
same,GI50,SNB-19 CNS,11.7 µM
same,TGI,SNB-19 CNS,25.8 µM
same,GI50,OVCAR-8 ovarian,5.7 µM
same,TGI,OVCAR-8 ovarian,14.1 µM
same,GI50,UO-31 renal,2.08 µM
same,TGI,UO-31 renal,5.14 µM
same,GI50,TK-10 renal,2.36 µM
same,TGI,TK-10 renal,5.09 µM
same,GI50,ACHN renal,1.63 µM
same,TGI,ACHN renal,3.28 µM
same,GI50,HS 578T breast,4.5 µM
same,TGI,HS 578T breast,13.4 µM
same,GI50,SK-MEL-2 melanoma,1.11 µM
same,TGI,SK-MEL-2 melanoma,3.24 µM
same,TGI,SF-295 CNS,11.8 µM
same,GI50,SNB-75 CNS,2.69 µM
same,TGI,SNB-75 CNS,7.3 µM
same,GI50,SK-MEL-28 melanoma,1.85 µM
same,TGI,SK-MEL-28 melanoma,3.5 µM
same,GI50,HCC-2998 colon,3.91 µM
same,TGI,HCC-2998 colon,13.3 µM
same,GI50,PC-3 prostate,5.49 µM
same,TGI,PC-3 prostate,13.2 µM
same,GI50,CAKI-1 renal,1.68 µM
same,TGI,CAKI-1 renal,3.6 µM
same,GI50,MOLT-4 leukemia,1.47 µM
same,TGI,MOLT-4 leukemia,> 20.6 µM
same,GI50,CCRF-CEM leukemia,0.218 µM
same,TGI,CCRF-CEM leukemia,1.8 µM
same,GI50,NCI/ADR-RES ovarian,2.94 µM
same,TGI,NCI/ADR-RES ovarian,8.73 µM
same,GI50,SW-620 colon,0.869 µM
same,TGI,SW-620 colon,2.58 µM
same,GI50,M14 melanoma,2.18 µM
same,TGI,M14 melanoma,6.5 µM
same,GI50,786-0 renal,3.31 µM
same,TGI,786-0 renal,8.9 µM
same,GI50,SR leukemia,1.97 µM
same,TGI,SR leukemia,6.89 µM
same,GI50,MALME-3M melanoma,1.72 µM
same,TGI,MALME-3M melanoma,3.76 µM
same,GI50,HOP-92 NSCLC,2.31 µM
same,TGI,HOP-92 NSCLC,13.2 µM
same,GI50,KM12 colon,4.88 µM
same,TGI,KM12 colon,16.2 µM
same,GI50,EKVX NSCLC,10.5 µM
same,TGI,EKVX NSCLC,22.8 µM
same,GI50,SF-268 CNS,3.91 µM
same,TGI,SF-268 CNS,17.4 µM
same,GI50,HCT-116 colon,1.23 µM
same,TGI,HCT-116 colon,2.58 µM
same,GI50,HT29 colon,1.51 µM
same,TGI,HT29 colon,3.24 µM
same,GI50,DU-145 prostate,1.25 µM
same,TGI,DU-145 prostate,3.73 µM
same,GI50,NCI-H226 lung,2.84 µM
same,TGI,NCI-H226 lung,8.24 µM
same,GI50,A498 renal,13.1 µM
same,TGI,A498 renal,26.2 µM
same,GI50,UACC-62 melanoma,5.6 µM
same,TGI,UACC-62 melanoma,18.7 µM
same,GI50,IGROV1 ovarian,10.2 µM
same,TGI,IGROV1 ovarian,22.2 µM
same,GI50,HL-60(TB) leukemia,2.68 µM
same,TGI,HL-60(TB) leukemia,7.86 µM
same,GI50,MCF7 breast,2.18 µM
same,TGI,MCF7 breast,8.21 µM
same,GI50,UACC-257 melanoma,2.74 µM
same,TGI,UACC-257 melanoma,8.01 µM
same,GI50,LOX IMVI melanoma,1.4 µM
same,TGI,LOX IMVI melanoma,2.78 µM
same,GI50,OVCAR-4 ovarian,2.26 µM
same,TGI,OVCAR-4 ovarian,6.97 µM
same,GI50,NCI-H460 lung,8.87 µM
same,TGI,NCI-H460 lung,24.3 µM
same,GI50,SN12C renal,3.65 µM
same,TGI,SN12C renal,13.3 µM
same,GI50,BT-549 breast,2.75 µM
same,TGI,BT-549 breast,10.7 µM
same,GI50,MDA-MB-231 breast,2.41 µM
same,TGI,MDA-MB-231 breast,6.53 µM
same,GI50,SF-539 CNS,1.81 µM
same,TGI,SF-539 CNS,3.55 µM
same,TGI,NCI-H522 lung,2.37 µM
same,GI50,OVCAR-5 ovarian,5.91 µM
same,TGI,OVCAR-5 ovarian,13.3 µM
same,GI50,SK-MEL-5 melanoma,8.29 µM
same,TGI,SK-MEL-5 melanoma,20.9 µM
